Results: patent US8653096B2, “Chemokine receptor antagonists and methods of use thereof” (Millennium Pharmaceuticals, Inc., priority 2001, dated 2014)

Each compound was assayed against T1, RANTES/MIP-1α chemokine receptor (CCR1) in THP-1 cell membranes (Homo sapiens, UniProt P32246) (assay: Receptor binding assay: 125I-RANTES or 125I-MIP-1α binding to THP-1 cell membranes). Details: inhibitor concentration required for 50% inhibition of specific binding; 125I-RANTES or 125I-MIP-1α as ligand, THP-1 cell membranes; read-out: IC50.
T1 construct: Membranes were prepared from THP-1 cells (ATCC #TIB202); host or cells: THP-1 cells (membrane preparation)
T1 sequence (P32246 1-355): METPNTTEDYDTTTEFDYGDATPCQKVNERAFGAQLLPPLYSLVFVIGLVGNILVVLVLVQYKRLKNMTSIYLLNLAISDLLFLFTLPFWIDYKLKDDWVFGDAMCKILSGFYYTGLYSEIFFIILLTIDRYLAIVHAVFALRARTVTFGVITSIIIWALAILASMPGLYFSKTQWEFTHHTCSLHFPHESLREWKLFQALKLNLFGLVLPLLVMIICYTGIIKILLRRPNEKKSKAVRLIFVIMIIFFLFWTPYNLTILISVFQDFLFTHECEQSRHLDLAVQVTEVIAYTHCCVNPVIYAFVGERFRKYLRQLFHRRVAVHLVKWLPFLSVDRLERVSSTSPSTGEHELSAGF

Oc1ccc2c(c1)C(=CCCN1CCC(O)(c3ccc(Cl)cc3)CC1)c1ccccc1CO2 [Example 32, 4-(4-Chlorophenyl)-1-[3-(6,11-dihydro-2-hydroxydibenz[b,e]oxepin-11-ylidene)propyl]piperidin-4-ol] and CC(C)(O)c1ccc2c(c1)C(=CCCN1CCC(O)(c3ccccc3Cl)CC1)c1cccnc1CO2 [Example 489, 4-(2-Chloro-phenyl)-1-{3-[7-(1-hydroxy-1-methyl-ethyl)-11H-10-oxa-1-azadibenzo[a,d]cyclohepten-5-ylidene]-propyl}-piperidin-4-ol] cannot be ordered by IC50: under 1 µM for the first, under 10 µM for the second.

CC(C)(O)c1ccc2c(c1)C(=CCCN1CCC(N(CC(=O)O)Cc3ccc(Cl)cc3)CC1)c1cccnc1CO2 [Example 501, [(4-Chloro-benzyl)-(1-{3-[7-(1-hydroxy-1-methyl-ethyl)-11H-10-oxa-1-aza-dibenzo[a,d]cyclohepten-5-ylidene]-propyl}-piperidin-4-yl)-amino]-acetic acid] and “5-Chloro-1′-[3-(5,11-dihydro-7-methoxy[1]benzoxepino[2,3-b]pyridin-5-ylidene)propyl]spiro[isobenzofuran-1(3H), 4′-piperidine] [Example 91]” cannot be ordered by IC50: under 10 µM for the first, under 1 µM for the second.

CC(C)(O)c1ccc2c(c1)C(=CCCN1CCC(C(=O)NCc3ccc(Cl)cc3)C1)c1cccnc1CO2 (stereo not shown) [Example 530] and “4-(p-Chloroanilino)-1-[3-(5,11-dihydro-7-methoxy[1]benzoxepino[2,3-b]pyridin-5-ylidene)propyl]piperidine [Example 86]” cannot be ordered by IC50: under 20 µM for the first, over 10 µM for the second.

C[C@H]1CN(CCC=C2c3cc(C(C)(C)O)ccc3OCc3ncccc32)CCN1c1ccc(Cl)cc1 [Example 556, 2-(5-{3-[4-(4-Chloro-phenyl)-3-(S)-methyl-piperazin-1-yl]-propylidene}-5,11-dihydro-10-oxa-1-aza-dibenzo[a,d]cyclohepten-7-yl)-propan-2-ol] and CCCCN1C(=O)c2ccccc2C(=CCCN2CCC(O)(c3ccc(Cl)cc3)CC2)c2ccccc21 [Example 41, 1-[3-(5-n-Butyl-6,11-dihydro-6-oxo-5H-dibenz[b,e]azepin-11-ylidene)propyl]-4-(4-chlorophenyl)-piperidin-4-ol] cannot be ordered by IC50: under 1 µM for the first, under 1 µM for the second.

“4-(7-Chloro-1,2-benzisoxazol-3-yl)-1-[3-(5,11-dihydro-7-methoxy[1]benzoxepino[2,3-b]pyridin-5-ylidene)propyl]piperidine [Example 185]” and CC1CN(CCC=C2c3cc(C(C)(C)O)ccc3OCc3ncccc32)CCN1c1ccc(Cl)cc1 (stereo not shown) [Example 519, 2-(5-{3-[4-(4-Chloro-phenyl)-3-methyl-piperazin-1-yl]-propylidene}-5,11-dihydro-10-oxa-1-aza-dibenzo[a,d]cyclohepten-7-yl)-propan-2-ol] cannot be ordered by IC50: under 1000 µM for the first, under 1 µM for the second.

CC(C)(O)c1ccc2c(c1)C(=CCCN1CCC(C(N)=O)(c3ccc(Cl)cc3)CC1)c1cccnc1CO2 [Example 460, 4-(4-Chloro-phenyl)-1-{3-[7-(1-hydroxy-1-methyl-ethyl)-11H-10-oxa-1-aza-dibenzo[a,d]cyclohepten-5-ylidene]-propyl}-piperidine-4-carboxylic acid amide] and COC(=O)C1(C)CN(CCC=C2c3cc(C(C)(C)O)ccc3OCc3ncccc32)CCC1(O)c1ccc(Cl)cc1 (stereo not shown) [Example 481, 4-(4-Chloro-phenyl)-4-hydroxy-1-{3-[7-(hydroxyl-1-methyl-ethyl)-11H-10-oxa-1-aza-dibenzo[a,d]cyclohepten-5-ylidene}-propyl]-3-methyl-piperidine-3-carboxylic acid methyl ester] cannot be ordered by IC50: under 1 µM for the first, under 1 µM for the second.

“4-(4-Chlorophenyl)-1-[3-(5,11-dihydro-7-(1-piperidino)methyl[1]benzoxepino[2,3-b]pyridin-5-ylidene)propyl]piperidin-4-ol [Example 277]” and “1′-[3-(5,11-Dihydro-7-methoxy[1]benzoxepino[2,3-b]pyridin-5-ylidene)propyl]spiro[isobenzofuran-1(3H), 4′-piperidine] [Example 90]” cannot be ordered by IC50: under 1 µM for the first, under 1 µM for the second.

“4-(4-Chlorophenyl)-1-[3-(7-diethylaminocarbonylmethyloxy-5,11-dihydro[1]benzoxepino[2,3-b]pyridin-5-ylidene)propyl]piperidin-4-ol [Example 263]” and COCCOc1ccc2c(c1)C(=CCCN1CCC(O)(c3ccc(Cl)cc3)C(C)(C)C1)c1cccnc1CO2 (stereo not shown) [Example 508, 4-(4-Chloro-phenyl)-1-{3-[7-(2-methoxy-ethoxy)-11H-10-oxa-1-aza-dibenzo [a,d]cyclohepten-5-ylidene]-propyl}-3,3-dimethyl-piperidin-4-ol] cannot be ordered by IC50: under 1 µM for the first, under 1 µM for the second.

CN1C(=O)c2ccccc2C(=CCCN2CCC(O)(c3ccc(Cl)cc3)CC2)c2ccccc21 [Example 19, 4-(4-Chlorophenyl)-1-[3-(6,11-dihydro-5-methyl-6-oxo-5H-dibenz[b,e]azepin-11-ylidene)propyl]piperidin-4-ol] and “4-(4-Chlorophenyl)-1-[3-(5,11-dihydro [1]benzoxepino[2,3-b]pyridin-5-ylidene)propyl]piperidin-4-ol [Example 53]” cannot be ordered by IC50: under 1 µM for the first, under 1 µM for the second.

“1-[3-(5,11-Dihydro-7-methoxy[1]benzoxepino[2,3-b]pyridin-5-ylidene)propyl]-4-(4-trifluoromethylphenyl)piperidin-4-ol [Example 150]” and CC(O)C1(c2ccc(Cl)cc2)CCN(CCC=C2c3cc(C(C)(C)O)ccc3OCc3ncccc32)CC1 (stereo not shown) [Example 462, 2-(5-{3-[4-(4-chloro-phenyl)-4-(1-hydroxy-ethyl)-piperidin-1-yl]-propylidene}-5,11-dihydro-10-oxa-1-aza-dibenzo [a,d]cyclohepten-7-yl)-propan-2-ol] cannot be ordered by IC50: under 10 µM for the first, under 10 µM for the second.

“1-[3-(5,11-Dihydro-7-methoxy[1]benzoxepino[2,3-b]pyridin-5-ylidene)propyl]-4-(4-fluoro-3-methylphenyl)piperidin-4-ol [Example 143]” and O=C1Nc2ncccc2C(=CCCN2CCC(O)(c3ccc(Cl)cc3)CC2)c2ccccc21 [Example 55, 4-(4-Chlorophenyl)-1-[3-(10,11-dihydro-10-oxo-5H-pyrido[2,3-c][2]benzazepin-5-ylidene)propyl]piperidin-4-ol] cannot be ordered by IC50: under 1 µM for the first, under 1 µM for the second.

O=[N+]([O-])c1ccc2c(c1)C(=CCCN1CCC(O)(c3ccc(Cl)cc3)CC1)c1ccccc1CO2 [Example 30, 4-(4-Chlorophenyl)-1-[3-(6,11-dihydro-2-nitrodibenz[b,e]oxepin-11-ylidene)propyl]piperidin-4-ol] and O=C1Nc2ccccc2C(=CCCN2CCC(O)(c3ccc(Cl)cc3)CC2)c2ccccc21 [Example 39, 4-(4-Chlorophenyl)-1-[3-(6,11-dihydro-6-oxo-5H-dibenz[b,e]azepin-11-ylidene)propyl]piperidin-4-ol] cannot be ordered by IC50: under 1 µM for the first, under 10 µM for the second.

COC(=O)c1ccc2c(c1)C(=CCCN1CCC(O)(c3ccc(Cl)cc3)CC1)c1cccnc1CO2 [Example 273] and COC1(c2ccc(Cl)cc2)CCN(CCC=C2c3cc(C(C)(C)O)ccc3OCc3ncccc32)CC1O (stereo not shown) [Example 474, 4-(4-Chloro-phenyl)-1-{3-[7-(1-hydroxy-1-methyl-ethyl)-11H-10-oxa-1-aza-dibenzo[a,d]cyclohepten-5-ylidene]-propyl}-4-methoxy-piperidin-3-ol] cannot be ordered by IC50: under 1 µM for the first, under 1 µM for the second.

“4-(2-Chlorophenyl)-1-[3-(5,11-dihydro-7-methoxy[1]benzoxepino[2,3-b]pyridin-5-ylidene)propyl]piperidin-4-ol [Example 76]” and CC(=O)N(Cc1ccc(Cl)cc1)C1CCN(CCC=C2c3cc(C(C)(C)O)ccc3OCc3ncccc32)C1 (stereo not shown) [Example 561, N-(4-Chloro-benzyl)-N-(1-{3-[7-(1-hydroxy-1-methyl-ethyl)-11H-10-oxa-1-aza-dibenzo[a,d]cyclohepten-5-ylidene]-propyl}-pyrrolidin-3-yl)-acetamide] cannot be ordered by IC50: under 10 µM for the first, under 10 µM for the second.

“1-[3-(7-(1-Carboxy-1-methylethyl)oxy-5,11-dihydro[1]benzoxepino[2,3-b]pyridin-5-ylidene)propyl]-4-(4-chlorophenyl)piperidine [Example 159]” and CC(C)(O)c1ccc2c(c1)C(=CCCN1CCN(c3ccc(Cl)c(Cl)c3)CC1)c1cccnc1CO2 [Example 538, 2-(5-{3-[4-(3,4-Dichloro-phenyl)-piperazin-1-yl]-propylidene}-5,11-dihydro-10-oxa-1-aza-dibenzo[a,d]cyclohepten-7-yl)-propan-2-ol] cannot be ordered by IC50: under 1 µM for the first, under 10 µM for the second.

“4-(4-Chlorophenyl)-1-[3-(5,11-dihydro-7-methoxy[1]benzoxepino[2,3-b]pyridin-5-ylidene)propyl]-1,2,3,6-tetrahydropyridine [Example 194]” and “4-(4-Chlorophenyl)-1-[3-(5,11-dihydro-7-cyclopentyl-oxycarbonyl-[1]benzoxepino[2,3-b]pyridin-5-ylidene) propyl]piperidine-4-ol [Example 429]” cannot be ordered by IC50: under 1 µM for the first, under 1 µM for the second.

CCOC(=O)CN1C(=O)c2ccccc2C(=CCCN2CCC(O)(c3ccc(Cl)cc3)CC2)c2ccccc21 [Example 18, 4-(4-Chlorophenyl)-1-[3-(6,11-dihydro-5-ethoxycarbonymethyl-6-oxo-5H-dibenz[b,e]azepin-11-ylidene)propyl]piperidin-4-ol] and “4-(4-Chlorophenyl)-1-[3-(7-diethylaminocarbonyl-5,11-dihydro[1]benzoxepino[2,3-b]pyridin-5-ylidene)propyl]piperidin-4-ol [Example 270]” cannot be ordered by IC50: under 1 µM for the first, under 1 µM for the second.
